Measured values reported in the supplement of paper PMC10307832.

Key:
Assay in all cases: relative viability (nuclei count vs DMSO), 5 days (fraction); higher = more cells survive
[1] = compound: C=CC(=O)N1CCC[C@@H](n2nc(-c3ccc(Oc4ccccc4)cc3)c3c(N)ncnc32)C1 [Ibrutinib] + CC(=O)c1c(C)c2cnc(Nc3ccc(N4CCNCC4)cn3)nc2n(C2CCCC2)c1=O [Palbociclib] (partner 0.5 µM)
Procedure, shortened: (§1)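 The day after seeding in 1536-well plates, lung cancer cell lines were treated by pin tool with a single drug, or with a fixed anchor-drug dose together with five library-drug doses (not always all listed) in √10 steps. After 5 days, a combined fix-and-stain solution (final 0.05% Triton X-100, 1% formaldehyde, 1 ug/ml Hoechst) was added. Nuclei counted on 4× images gave relative viability as treated counts over vehicle counts, reported as the median of duplicate plates.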

[2] = compound: C=CC(=O)Nc1cc(-n2c(=O)ccc3cnc4ccc(-c5ccc(NS(C)(=O)=O)cc5)cc4c32)ccc1C [BMX-IN-1] + O=C(c1cc(Cc2n[nH]c(=O)c3ccccc23)ccc1F)N1CCN(C(=O)C2CC2)CC1 [Olaparib] (partner 8 µM)
Procedure, shortened: as §1

[3] = compound: C=CC(=O)Nc1cc(-n2c(=O)ccc3cnc4ccc(-c5ccc(NS(C)(=O)=O)cc5)cc4c32)ccc1C [BMX-IN-1] + N=C(N)NC(=N)NCCc1ccccc1 [Phenformin] (partner 250 µM)
Procedure, shortened: as §1

[4] = compound: C=CCc1cccc(/C=N/NC(=O)CN2CCN(Cc3ccccc3)CC2)c1O [PAC-1] + N=C(N)NC(=N)NCCc1ccccc1 [Phenformin] (partner 250 µM)
Procedure, shortened: as §1

| Cell Line | relative viability ([1]; first compound 0.005 µM) | relative viability ([1]; first compound 0.01581 µM) | relative viability ([1]; first compound 0.05 µM) | relative viability ([1]; first compound 0.1581 µM) | relative viability ([1]; first compound 0.5 µM) | relative viability ([2]; first compound 0.02 µM) | relative viability ([2]; first compound 0.2 µM) | relative viability ([2]; first compound 0.6325 µM) | relative viability ([2]; first compound 2 µM) | relative viability ([3]; first compound 0.02 µM) | relative viability ([3]; first compound 0.2 µM) | relative viability ([3]; first compound 0.6325 µM) | relative viability ([3]; first compound 2 µM) | relative viability ([4]; first compound 0.02 µM) | relative viability ([4]; first compound 0.06325 µM) | relative viability ([4]; first compound 0.2 µM) | relative viability ([4]; first compound 2 µM) |
| --- | --- | --- | --- | --- | --- | --- | --- | --- | --- | --- | --- | --- | --- | --- | --- | --- | --- |
| NCI-H2170 | 0.329 | 0.296 | 0.259 | 0.385 | 0.139 | 0.587 | 0.677 | 0.717 | 0.624 | 0.375 | 0.4 | 0.415 | 0.416 | 0.426 | 0.356 | 0.422 | 0.384 |
| RERF-LC-KJ | 1.12 | 0.915 | 0.928 | 1.09 | 0.931 | 0.968 | 1.09 | 1.06 | 0.923 | 0.439 | 0.408 | 0.42 | 0.416 | 0.414 | 0.392 | 0.407 | 0.427 |
| LXF-289 | 0.607 | 0.598 | 0.582 | 0.556 | 0.606 | 1.32 | 1.19 | 1.12 | 1.14 | 0.481 | 0.521 | 0.538 | 0.536 | 0.52 | 0.53 | 0.501 | 0.511 |
| LC-2-ad | 0.588 | 0.513 | 0.505 | 0.542 | 0.505 | 0.829 | 0.848 | 0.674 | 0.733 | 0.553 | 0.555 | 0.722 | 0.617 | 0.609 | 0.654 | 0.573 | 0.512 |
| NCI-H23 | 0.484 | 0.465 | 0.456 | 0.53 | 0.506 | 0.304 | 0.415 | 0.312 | 0.229 | 0.724 | 0.956 | 0.828 | 0.838 | 0.788 | 0.814 | 0.713 | 0.815 |
